In PubChem BioAssay (NCI):
“And” between values parts separate entries of the source, which are not always exact repeats. Identical values can stand only once.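 Protocol summary: plate cells (96-well), add compound at 5 concentrations, incubate 48 h, interpolate endpoints linearly. Here, GI50 denotes the concentration required for 50% inhibition of growth. TGI denotes the concentration required for complete inhibition of growth.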

Key:
Assay in all cases: NCI-60 cell line screen, 48 h
UACC-62 melanoma = test system: UACC-62 melanoma
SNB-19 CNS = test system: SNB-19 CNS
U251 CNS = test system: U251 CNS
SF-295 CNS = test system: SF-295 CNS
HL-60(TB) leukemia = test system: HL-60(TB) leukemia
786-0 renal = test system: 786-0 renal
OVCAR-5 ovarian = test system: OVCAR-5 ovarian
LOX IMVI melanoma = test system: LOX IMVI melanoma
NCI-H460 lung = test system: NCI-H460 lung
HOP-92 NSCLC = test system: HOP-92 NSCLC

Compound | GI50 (UACC-62 melanoma) | TGI (UACC-62 melanoma) | GI50 (SNB-19 CNS) | TGI (SNB-19 CNS) | GI50 (U251 CNS) | TGI (U251 CNS) | GI50 (SF-295 CNS) | TGI (SF-295 CNS) | GI50 (HL-60(TB) leukemia) | TGI (HL-60(TB) leukemia) | GI50 (786-0 renal) | TGI (786-0 renal) | GI50 (OVCAR-5 ovarian) | TGI (OVCAR-5 ovarian) | GI50 (LOX IMVI melanoma) | TGI (LOX IMVI melanoma) | GI50 (NCI-H460 lung) | TGI (NCI-H460 lung) | GI50 (HOP-92 NSCLC) | TGI (HOP-92 NSCLC)
O=[N+]([O-])c1cccc(-c2nc(-c3ccc(Cl)cc3Cl)cn2-c2ccccc2)c1 | 6730 nM | > 33.3 µM | 2550 nM | > 18.2 µM | 0.614 µM | 1.26 µM | 452 nM | 0.976 µM | > 33300 nM | > 33.3 µM | 0.995 µM | 2.88 µM | 3.54 µM | 24.6 µM | 2980 nM | > 30.7 µM | 598 nM | 1.12 µM | 0.105 µM | 22.7 µM
O=C(O)C1CC=CCC1C(=O)Nc1cccc(O)c1 (stereo not drawn) |  | > 100 µM |  | > 100 µM |  | > 100 µM |  | > 100 µM |  | > 100 µM |  | > 100 µM |  | > 100 µM |  | > 100 µM |  | > 100 µM |  | > 100 µM
O=C(O)c1cc2ccccc2c2c3c(ccc12)OCO3 | 116000 nM | 279 µM | 152000 nM | 849 µM | 134 µM | 478 µM | 157000 nM | 618 µM | 172000 nM | 440 µM | 273 µM | 936 µM | 279 µM | > 1000 µM | 223000 nM | 766 µM | 265000 nM | > 1000 µM | 18.7 µM | 96.5 µM
CC(C)c1ccc(C2NC(=S)NC3=C2c2ccccc2C3=O)cc1 (stereo not drawn) |  | > 52.8 µM |  | > 55.2 µM |  | > 58.7 µM |  | > 52.4 µM |  | 32.5 µM |  | > 60 µM |  | > 64.2 µM |  | 35.1 µM |  | > 67.3 µM |  | 48.3 µM
O=C1/C(=C/c2ccc3c(c2)OCCO3)CCC/C1=C\c1ccc2c(c1)OCCO2 |  | 61.3 µM |  | > 100 µM |  | 36.7 µM |  | 57.3 µM |  | 56.9 µM |  | > 100 µM |  | > 100 µM |  | > 100 µM |  | 65.6 µM |  | > 100 µM
O=C1/C=C/[C@@H](O)[C@@H]2C[C@@H](O)C[C@H]2/C=C/CCC[C@H](CCc2ccc3ncccc3c2)O1 | 303 nM | 8.44 µM | 400 nM | > 100 µM | 0.347 µM | > 100 µM | 351 nM | > 100 µM | 268 nM | 0.691 µM | 0.218 µM | 0.504 µM | 0.42 µM | > 100 µM | 152 nM | 0.333 µM | 360 nM | > 46.8 µM | 2.77 µM | > 100 µM
O=c1c2ccccc2[nH]c2c(O)ccc(O)c12 |  | 33.5 µM |  | > 100 µM |  | 21.6 µM |  | 38.5 µM |  | 10.2 µM |  | 38.8 µM |  | > 100 µM |  | 33.9 µM |  | 50.9 µM |  | 34.5 µM
O=c1c2cc(Br)cc(Br)c2nc(CCCl)n1-c1ccc(O)c([N+](=O)[O-])c1 |  | 47.3 µM |  | 38.2 µM |  | 32.9 µM |  | 45 µM |  | 42.9 µM |  | 32.4 µM |  | 33.1 µM |  |  |  | 42.1 µM |  | 52.2 µM
C[C@H]1C/C=C/[C@H]2[C@@H]3O[C@]3(C)[C@@H](C)[C@H]3[C@H](Cc4ccccc4)NC(=O)[C@]32OC(=O)O/C=C/[C@@](C)(O)C1=O | 65.2 nM and 25 nM |  | 17.4 nM |  | 0.025 µM | 1.14 µM and 4.02 µM and 0.424 µM | 48.4 nM and 25 nM |  | 153 nM and 97.3 nM | 11.3 µM and 2.95 µM and 4.97 µM |  | 63.5 µM |  | > 95.4 µM | < 10 nM and 25 nM |  | 12.5 nM and 25 nM | 43.8 µM and 125 µM and 36.9 µM |  | 0.0591 µM and 0.0877 µM
NCCCOc1cc2ccccc2cc1C(=O)Nc1ccc(Cl)cc1OC(=O)c1cc2ccccc2cc1OCCCN | 1440 nM | 2.85 µM | 766 nM | 2.19 µM |  |  | 516 nM | 1.44 µM | 517 nM | 2.37 µM | 0.172 µM | 0.327 µM | 1 µM | 2.47 µM | 162 nM | 0.316 µM | 195 nM | 0.345 µM | 1.64 µM | 3.71 µM
N#Cc1c(-c2ccccc2)cc(-c2ccc(N)cc2)[nH]c1=O |  | > 100 µM |  | > 100 µM |  | > 100 µM |  | > 100 µM |  | > 100 µM |  | > 100 µM |  | > 100 µM |  | > 100 µM |  | > 100 µM |  | > 100 µM
COCCOCCOCc1n(Cc2ccc3ccccc3c2)c2ccccc2[n+]1Cc1ccc2ccccc2c1 | 329 nM | 1.45 µM | 377 nM | 1.59 µM | 0.352 µM | 1.48 µM | 691 nM | 2.16 µM | 115 nM | 0.38 µM | 1.31 µM | 2.65 µM | 0.927 µM | 2.26 µM | 419 nM | 1.67 µM | 483 nM | 1.85 µM | 0.149 µM | 0.829 µM
C/C=C/C/C=C/[C@H](C)C[C@H](O)[C@@H]1C[C@@H]2O[C@H]2/C=C/[C@@H]2OC(C)(C)O[C@H]2/C=C/C[C@H](C)CC(=O)O1 | 4310 nM | 20.2 µM | 21700 nM | > 100 µM | 13.5 µM | > 100 µM | 6060 nM | 60.8 µM | 5600 nM | 30.9 µM | 69.7 µM | > 100 µM | 73.8 µM | > 100 µM | 7620 nM | > 100 µM | 5650 nM | > 100 µM | 6.71 µM | 91.6 µM
Nc1nonc1-c1nc2ccccc2n1Cc1ccc(F)cc1 | 4630 nM | > 100 µM | 14600 nM | > 100 µM | 7.48 µM | > 100 µM | 13100 nM | > 100 µM |  |  | 29.1 µM | > 100 µM | > 100 µM | > 100 µM | 6480 nM | > 100 µM | 4250 nM | > 100 µM | 4.04 µM | 36.7 µM
CC(=O)Oc1ccc2c(c1)[C@@]1(C)CCCC(C)(C)[C@@H]1CC2 | 17600 nM | 32.8 µM | 19600 nM | 39.4 µM | 19.9 µM | 35 µM | 19100 nM | 56.6 µM | 34700 nM | > 100 µM | 18.1 µM | 32.8 µM | 22.3 µM | 40.5 µM | 17700 nM | 32.1 µM | 27500 nM | 90.5 µM | 21.7 µM | 41.9 µM
